Data published in ChEMBL document CHEMBL5252624, “Antifungal evaluation of quinoline-chalcone derivatives combined with FLC against drug-resistant Candida albicans” (2023).
Calls of active or inactive are those of the source. The calls are words filed in the database; no cut-off is given here.

What was measured:
Candida albicans [1] = experiment: Antifungal activity against […] assessed as fractional inhibitory concentration index in presence of fluconazole by microdilution method; type: functional
Candida albicans [2] = experiment: Antifungal activity against […] assessed as fungal growth inhibition in presence of fluconazole by microdilution method; type: functional
Candida albicans [3] = experiment: Antifungal activity against Candida albicans ATCC SC5314 assessed as fungal growth inhibition in presence of fluconazole by microdilution method; type: functional
Candida albicans [4] = experiment: Antifungal activity against Candida albicans ATCC SC5314 assessed as fungal growth inhibition by microdilution method; type: functional
Candida albicans [5] = experiment: Antifungal activity against Candida albicans ATCC SC5314 assessed as fractional inhibitory concentration index in presence of fluconazole by microdilution method; type: functional
Candida albicans [6] = experiment: Antifungal activity against […] assessed as fungal growth inhibition by microdilution method; type: functional
Candida albicans [7] = experiment: Antifungal activity against […] assessed as fungal growth inhibition measured for 72 hrs by time kill assay; type: functional, organism-based
Candida albicans [8] = experiment: Antifungal activity against […] assessed as fungal growth inhibition in presence of fluconazole by time kill assay; type: functional, organism-based; conditions: time 72.0 hrs, TDE = time-dependent effect
Candida albicans [9] = experiment: Antifungal activity against Candida albicans ATCC SC5314 assessed as decrease in number of hypha at 32 microg/ml measured for 4 to 8 hrs in presence fluconazole of by inverted microscopic analysis; type: functional, organism-based; conditions: dose 32.0 µg/ml, time 4-8 hrs
Candida albicans [10] = experiment: Induction of ROS accumulation in Candida albicans assessed as increase in intracellular ROS level; type: functional, organism-based
Candida albicans [11] = experiment: Antifungal activity against Candida albicans ATCC SC5314 assessed as reduction in hypha length at 32 microg/ml measured for 4 to 8 hrs in presence fluconazole of by inverted microscopic analysis; type: functional, organism-based; conditions: dose 32.0 µg/ml, time 4-8 hrs
Candida albicans [12] = experiment: Inhibition of biofilm formation in Candida albicans ATCC SC5314 at 32 microg/ml in presence fluconazole measured at 24 hrs; type: functional, organism-based; conditions: dose 32.0 µg/ml
Candida albicans [13] = experiment: Downregulation of ATP level in Candida albicans; type: functional, organism-based
Candida albicans [14] = experiment: Downregulation of ATP level in Candida albicans in presence of fluconazole; type: functional, organism-based
Candida albicans [15] = experiment: Induction of ROS accumulation in Candida albicans assessed as increase in intracellular ROS level in presence of fluconazole; type: functional, organism-based
Candida albicans [16] = experiment: Inhibition of mitochondrial membrane potential in Candida albicans in presence of fluconazole; type: functional, organism-based
Candida albicans [17] = experiment: Inhibition of mitochondrial membrane potential in Candida albicans; type: functional, organism-based

For `Cc1cccc(C)c1Oc1nc2ccccc2cc1/C=C/C(=O)c1ccc(F)cc1`, which FICI80 (Candida albicans [1]) is on record?
The FICI80 was 0.33.

What about the MIC80 (Candida albicans [2]) of the same compound?
Its MIC80 is 65.1 mg/L.

And the MIC80 (Candida albicans [3])?
The MIC80 was 1.17 mg/L.

And the MIC80 (Candida albicans [4])?
Its MIC80 is over 200 mg/L.

What about the FICI80 (Candida albicans [5]) of the same compound?
Its FICI80 is 0.58.

What does the source list for `CCOc1nc2ccccc2cc1/C=C/C(=O)c1ccc(F)cc1`?
FICI80 (Candida albicans [1]): 2; MIC80 (Candida albicans [3]): 5.54 mg/L; MIC80 (Candida albicans [4]): > 200 mg/L; FICI80 (Candida albicans [5]): 2.74

How did the FICI80 (Candida albicans [1]) turn out when `O=C(/C=C/c1cc2ccccc2nc1N1CCCCC1)c1ccc(OC(F)(F)F)cc1` was run?
The FICI80 was 2.

What about the MIC80 (Candida albicans [3]) of the same compound?
The MIC80 was 4.89 mg/L.

And the MIC80 (Candida albicans [4])?
Its MIC80 is over 200 mg/L.

What about the FICI80 (Candida albicans [5]) of the same compound?
Its FICI80 is 2.42.

`Cc1cccc(C)c1Oc1nc2ccccc2cc1/C=C/C(=O)c1ccc([N+](=O)[O-])cc1` was tested. Which FICI80 (Candida albicans [1]) did it give?
The FICI80 was 0.23.

What about the MIC80 (Candida albicans [3]) of the same compound?
The MIC80 was 3.07 mg/L.

What about the MIC80 (Candida albicans [4]) of the same compound?
Its MIC80 is over 200 mg/L.

What about the FICI80 (Candida albicans [5]) of the same compound?
The FICI80 was 1.52.

Which FICI80 (Candida albicans [1]) does the source give for `Cc1cccc(C)c1Oc1nc2ccccc2cc1/C=C/C(=O)c1ccc(OC(F)(F)F)cc1` here?
Its FICI80 is 2.

And the MIC80 (Candida albicans [3])?
The MIC80 was 2.37 mg/L.

And the MIC80 (Candida albicans [4])?
The MIC80 was over 200 mg/L.

What about the FICI80 (Candida albicans [5]) of the same compound?
The FICI80 was 1.17.

For `CN1CCN(c2nc3ccccc3cc2/C=C/C(=O)c2ccc(OC(F)(F)F)cc2)CC1`, which FICI80 (Candida albicans [1]) is on record?
The FICI80 was 0.23.

What about the MIC80 (Candida albicans [2]) of the same compound?
The MIC80 was 6.14 mg/L.

What about the MIC80 (Candida albicans [6]) of the same compound?
Its MIC80 is 17.8 mg/L.

What about the MIC80 (Candida albicans [3]) of the same compound?
The MIC80 was 4.28 mg/L.

And the MIC80 (Candida albicans [4])?
The MIC80 was 17.6 mg/L.

What about the FICI80 (Candida albicans [5]) of the same compound?
Its FICI80 is 2.35.

How did the FICI80 (Candida albicans [1]) turn out when `CCN(CC)c1nc2ccccc2cc1/C=C/C(=O)c1ccc(OC(F)(F)F)cc1` was run?
Its FICI80 is 0.02.

What about the MIC80 (Candida albicans [2]) of the same compound?
Its MIC80 is 4.42 mg/L.

And the MIC80 (Candida albicans [3])?
The MIC80 was 1.85 mg/L.

What about the MIC80 (Candida albicans [4]) of the same compound?
Its MIC80 is over 200 mg/L.

And the FICI80 (Candida albicans [5])?
The FICI80 was 0.92.

With `O=C(/C=C/c1cc2ccccc2nc1N1CCCCC1)c1ccc([N+](=O)[O-])cc1` as the compound, how does the FICI80 (Candida albicans [1]) read?
The FICI80 was 2.

What about the MIC80 (Candida albicans [3]) of the same compound?
The MIC80 was 5.64 mg/L.

What about the MIC80 (Candida albicans [4]) of the same compound?
Its MIC80 is over 200 mg/L.

And the FICI80 (Candida albicans [5])?
The FICI80 was 2.79.

Which Activity (Candida albicans [7]) does the source give for `CN1CCN(c2nc3ccccc3cc2/C=C/C(=O)c2ccc(F)cc2)CC1` here?
Its Activity is “Active”.

What about the Activity (Candida albicans [8]) of the same compound?
Its Activity is “Tde”.

What about the Activity (Candida albicans [9]) of the same compound?
Its Activity is “Active”.

And the FICI80 (Candida albicans [1])?
The FICI80 was 0.16.

What about the MIC80 (Candida albicans [2]) of the same compound?
Its MIC80 is 6.4 mg/L.

And the Activity (Candida albicans [10])?
The Activity was “Active”.

And the Activity (Candida albicans [11])?
The Activity was “Active”.

And the MIC80 (Candida albicans [6])?
Its MIC80 is over 200 mg/L.

What about the inhibition (Candida albicans [12]) of the same compound?
The inhibition was “Active”.

What about the Activity (Candida albicans [13]) of the same compound?
Its Activity is “Active”.

And the MIC80 (Candida albicans [3])?
The MIC80 was 3.61 mg/L.

What about the MIC80 (Candida albicans [4]) of the same compound?
The MIC80 was 85.9 mg/L.

And the Activity (Candida albicans [14])?
Its Activity is “Active”.

What about the FICI80 (Candida albicans [5]) of the same compound?
The FICI80 was 1.82.

And the Activity (Candida albicans [15])?
Its Activity is “Active”.

And the inhibition (Candida albicans [16])?
Its inhibition is “Active”.

What does the source list for `OC(Cn1cncn1)(Cn1cncn1)c1ccc(F)cc1F` [FLUCONAZOLE]?
MIC80 (Candida albicans [6]): > 200 mg/L; MIC80 (Candida albicans [4]): 2.03 mg/L

Which results are given for `O=C(/C=C/c1cc2ccccc2nc1N1CCCCC1)c1ccc(F)cc1`?
FICI80 (Candida albicans [1]): 2; MIC80 (Candida albicans [3]): 0.96 mg/L; MIC80 (Candida albicans [4]): > 200 mg/L; FICI80 (Candida albicans [5]): 0.48

What does the source list for `CCOc1nc2ccccc2cc1/C=C/C(=O)c1ccc([N+](=O)[O-])cc1`?
FICI80 (Candida albicans [1]): 2; MIC80 (Candida albicans [3]): 4.96 mg/L; MIC80 (Candida albicans [4]): > 200 mg/L; FICI80 (Candida albicans [5]): 2.46

What does the source list for `CN1CCN(c2nc3ccccc3cc2/C=C/C(=O)c2ccc([N+](=O)[O-])cc2)CC1`?
Activity (Candida albicans [7]): Active; Activity (Candida albicans [8]): Tde; FICI80 (Candida albicans [1]): 0.17; MIC80 (Candida albicans [2]): 6.9 mg/L; inhibition (Candida albicans [17]): inactive; Activity (Candida albicans [10]): inactive; inhibition (Candida albicans [12]): Active; Activity (Candida albicans [13]): Active; MIC80 (Candida albicans [3]): 4.28 mg/L; MIC80 (Candida albicans [4]): > 200 mg/L; Activity (Candida albicans [14]): Active; FICI80 (Candida albicans [5]): 1.25; Activity (Candida albicans [15]): Active

With `CCOc1nc2ccccc2cc1/C=C/C(=O)c1ccc(OC(F)(F)F)cc1` as the compound, how does the FICI80 (Candida albicans [1]) read?
The FICI80 was 0.08.

And the MIC80 (Candida albicans [2])?
The MIC80 was 16 mg/L.

And the MIC80 (Candida albicans [3])?
The MIC80 was 2.9 mg/L.

And the MIC80 (Candida albicans [4])?
Its MIC80 is over 200 mg/L.

And the FICI80 (Candida albicans [5])?
Its FICI80 is 16.04.

For `CCN(CC)c1nc2ccccc2cc1/C=C/C(=O)c1ccc(F)cc1`, which FICI80 (Candida albicans [1]) is on record?
Its FICI80 is 0.03.

What about the MIC80 (Candida albicans [2]) of the same compound?
The MIC80 was 5.36 mg/L.

And the MIC80 (Candida albicans [3])?
The MIC80 was 1.87 mg/L.

And the MIC80 (Candida albicans [4])?
The MIC80 was over 200 mg/L.

And the FICI80 (Candida albicans [5])?
The FICI80 was 0.93.

Which results are given for `CCN(CC)c1nc2ccccc2cc1/C=C/C(=O)c1ccc([N+](=O)[O-])cc1`?
FICI80 (Candida albicans [1]): 2; MIC80 (Candida albicans [3]): 3.99 mg/L; MIC80 (Candida albicans [4]): > 200 mg/L; FICI80 (Candida albicans [5]): 1.98
